Measurements from ChEMBL document CHEMBL5113447, “Synthesis of baicalein derivatives and evaluation of their antiviral activity against arboviruses” (Bioorg Med Chem Lett, 2022).

What was measured:
Chikungunya virus [1] = test: Antiviral activity against CHIKV infected in human Huh-7 cells assessed as inhibition of viral infection by measuring EGFP-positive cells measured 24 hrs post infection by fluorescent microscopic analysis; type: functional, organism-based; settings: Huh-7, 24 h
West Nile virus [2] = test: Antiviral activity against WNV infected in human Huh-7 cells assessed as inhibition of viral infection at 20 uM measured 24 hrs post infection by immunofluorescent assay relative to control; type: functional
Zika virus [3] = test: Antiviral activity against ZIKV infected in human Huh-7 cells assessed as inhibition of viral infection at 20 uM measured 24 hrs post infection by immunofluorescent assay relative to control; type: functional
[4] = Cytotoxicity against human Huh-7 cells assessed as reduction in cell viability incubated for 24 hrs by CCK-8 assay; type: toxicity, cell-based
Zika virus [5] = test: Antiviral activity against ZIKV infected in human Huh-7 cells assessed as inhibition of viral infection measured 24 hrs post infection by immunofluorescent assay; type: functional, organism-based; settings: Huh-7, 24 h
West Nile virus [6] = test: Antiviral activity against WNV infected in human Huh-7 cells assessed as inhibition of viral infection measured 24 hrs post infection by immunofluorescent assay; type: functional, organism-based; settings: Huh-7, 24 h
Zika virus [7] = test: Potency index, ratio of baicalein IC50 to test compound IC50 for antiviral activity against ZIKV infected in human Huh-7 cells assessed as inhibition of viral infection measured 24 hrs post infection by immunofluorescent assay; type: functional
Chikungunya virus [8] = test: Potency index, ratio of baicalein IC50 to test compound IC50 for antiviral activity against CHIKV infected in human Huh-7 cells assessed as inhibition of viral infection by measuring EGFP-positive cells measured 24 hrs post infection by fluorescent microscopic analysis; type: functional
West Nile virus [9] = test: Potency index, ratio of baicalein IC50 to test compound IC50 for antiviral activity against WNV infected in human Huh-7 cells assessed as inhibition of viral infection measured 24 hrs post infection by immunofluorescent assay; type: functional

| Structure (SMILES) | IC50 (Chikungunya virus [1]) [µM] | inhibition at 20 µM (West Nile virus [2]) [%] | inhibition at 20 µM (Zika virus [3]) [%] | CC50 at 24 h [4] [µM] | IC50 (Zika virus [5]) [µM] | IC50 (West Nile virus [6]) [µM] | Ratio IC50 (Zika virus [7]) | Ratio IC50 (Chikungunya virus [8]) | Ratio IC50 (West Nile virus [9]) |
| --- | --- | --- | --- | --- | --- | --- | --- | --- | --- |
| Cc1cccc(-c2c(O)c(O)c(O)c3c(=O)cc(-c4ccccc4)oc23)c1 | 8.7 | < 50 | < 50 | > 100 |  |  |  |  |  |
| Cc1ccc(-c2c(O)c(O)c(O)c3c(=O)cc(-c4ccccc4)oc23)cc1 | 7.9 | < 50 | < 50 | > 100 |  |  |  |  |  |
| Oc1cc2oc(-c3ccccc3)cc(=S)c2c(O)c1O | 7.6 | < 50 | < 50 | > 100 |  |  |  |  |  |
| O=c1cc(-c2ccccc2)oc2c(-c3ccc(OC(F)(F)F)cc3)c(O)c(O)c(O)c12 | 5.2 |  |  | > 100 | 8.3 | 6.4 |  |  |  |
| O=c1cc(-c2ccccc2)oc2c(-c3cccc(F)c3)c(O)c(O)c(O)c12 | 4.3 |  |  | > 100 | 3.5 | 2.9 | >5 |  |  |
| O=c1cc(-c2ccccc2)oc2cc(O)c(O)c(O)c12 [BAICALEIN] | 16.9 |  |  | > 100 | 19.6 | 14.5 |  |  |  |
| O=c1cc(-c2ccc(Nc3ccc(F)cc3)cc2)oc2cc(O)c(O)c(O)c12 | 4.8 |  |  | > 100 | 6.9 | 4.5 |  |  |  |
| O=c1cc(-c2ccccc2)oc2c(-c3ccc(F)cc3)c(O)c(O)c(O)c12 | 4.2 |  |  | > 100 | 2.5 | 3.1 | >5 |  |  |
| CN1CCN(c2ccc(-c3cc(=O)c4c(O)c(O)c(O)cc4o3)cc2)CC1 | 8.9 | < 50 | < 50 | > 100 |  |  |  |  |  |
| Oc1c(O)c(O)c2c(=S)cc(-c3ccccc3)oc2c1-c1ccc(F)cc1 | 4.7 |  |  | > 100 | 7.7 | 6.2 |  |  |  |
| Oc1c(O)c(O)c2c(=S)cc(-c3ccccc3)oc2c1-c1cccc(F)c1 | 9.7 | < 50 | < 50 | > 100 |  |  |  |  |  |
| O=c1cc(-c2ccc(N3CCN(c4ccc(O)cc4)CC3)cc2)oc2cc(O)c(O)c(O)c12 | 5.9 |  |  | > 100 | 6.9 | 6.6 |  |  |  |
| O=c1cc(-c2ccc(N3CCN(c4cccc(Cl)c4)CC3)cc2)oc2cc(O)c(O)c(O)c12 | 4.3 |  |  | > 100 | 5.7 | 5.1 |  |  |  |
| O=c1cc(-c2ccccc2)oc2c(-c3cc(F)cc(F)c3)c(O)c(O)c(O)c12 | 8.6 | < 50 | < 50 | > 100 |  |  |  |  |  |
| Oc1c(O)c(O)c2c(=S)cc(-c3ccccc3)oc2c1-c1ccc(C(F)(F)F)cc1 | 2.7 |  |  | > 100 | 3.8 | 2.1 | >5 | >5 | >6 |
| O=c1cc(-c2ccc(Nc3ccc(Cl)cc3)cc2)oc2cc(O)c(O)c(O)c12 | 3.4 |  |  | > 100 | 1.9 | 2.4 | >5 | >5 | >6 |
| COc1cc2oc(-c3ccc(Nc4ccc(F)cc4)cc3)cc(=O)c2c(OC)c1OC | 9.7 | < 50 | < 50 | 77.6 |  |  |  |  |  |
| COc1cc2oc(-c3ccc(N4CCN(C)CC4)cc3)cc(=O)c2c(OC)c1OC | 11.5 | < 50 | < 50 | > 100 |  |  |  |  |  |
| COc1cc2oc(-c3ccccc3)cc(=S)c2c(OC)c1OC | 9.7 | < 50 | < 50 | > 100 |  |  |  |  |  |
| O=c1cc(-c2ccc(Nc3ccc(Br)cc3)cc2)oc2cc(O)c(O)c(O)c12 | 5.2 |  |  | > 100 | 6.7 | 4.1 |  |  |  |
| O=c1cc(-c2ccccc2)oc2c(-c3ccccc3)c(O)c(O)c(O)c12 | 5.8 |  |  | 86.3 | 5.8 | 3.1 |  |  |  |
| COc1c(OC)c(OC)c2c(=O)cc(-c3ccccc3)oc2c1-c1ccc(OC(F)(F)F)cc1 | 17.8 | < 50 | < 50 | > 100 |  |  |  |  |  |
